The structures appear in SMILES notation.

Chain of c-Kit kinase (P10721 26-976): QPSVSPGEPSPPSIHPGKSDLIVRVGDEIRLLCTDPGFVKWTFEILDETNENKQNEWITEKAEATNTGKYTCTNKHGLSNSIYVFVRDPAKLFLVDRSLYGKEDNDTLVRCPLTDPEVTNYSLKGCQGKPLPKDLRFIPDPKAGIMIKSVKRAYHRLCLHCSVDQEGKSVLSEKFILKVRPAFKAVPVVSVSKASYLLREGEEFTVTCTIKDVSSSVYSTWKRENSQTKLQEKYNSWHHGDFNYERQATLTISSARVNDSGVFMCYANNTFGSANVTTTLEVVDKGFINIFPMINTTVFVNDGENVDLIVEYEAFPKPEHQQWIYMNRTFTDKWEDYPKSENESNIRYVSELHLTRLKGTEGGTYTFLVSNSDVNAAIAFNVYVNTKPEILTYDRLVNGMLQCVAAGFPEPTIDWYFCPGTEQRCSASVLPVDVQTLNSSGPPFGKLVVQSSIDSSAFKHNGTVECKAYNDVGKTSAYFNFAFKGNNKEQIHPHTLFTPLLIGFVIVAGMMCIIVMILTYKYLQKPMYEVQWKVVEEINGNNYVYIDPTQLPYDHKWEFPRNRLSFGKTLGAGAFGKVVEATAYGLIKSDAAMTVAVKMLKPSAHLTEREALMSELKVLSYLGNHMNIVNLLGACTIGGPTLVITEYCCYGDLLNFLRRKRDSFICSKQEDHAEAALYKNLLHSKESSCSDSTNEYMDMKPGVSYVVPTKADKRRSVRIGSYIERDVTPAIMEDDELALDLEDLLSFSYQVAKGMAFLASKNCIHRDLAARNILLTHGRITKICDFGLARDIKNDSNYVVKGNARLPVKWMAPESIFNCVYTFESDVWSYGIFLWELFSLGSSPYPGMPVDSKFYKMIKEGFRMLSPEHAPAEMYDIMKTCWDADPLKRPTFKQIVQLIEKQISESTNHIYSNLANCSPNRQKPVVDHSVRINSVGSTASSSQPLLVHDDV

The target of the experiment is c-Kit kinase (Homo sapiens (Human), UniProt P10721). The experiment in a line: c-Kit biochemical assay (AlphaScreen kinase activity). A digest of the protocol:
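IC50 values come from 8-point, 1:3 compound titrations measuring inhibition of peptide phosphorylation by c-Kit (commercial or His-tagged E. coli-expressed) over 1 h at room temperature, read by AlphaScreen PY30/streptavidin beads. Low-ATP version: 10 μM ATP, 100 nM biotin-(E4Y)3; high-ATP version: 100 μM ATP, 30 nM biotin-(E4Y)10.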
For orientation: Bead proximity is the source of the signal in Alpha formats.
Consider `COc1ccc(-c2cc3c(N4CCC(C)(c5nc(C)c(-c6ccc(C(F)(F)F)cc6)[nH]5)CC4)ncnc3[nH]2)cn1` [P-3178, 6-(6-methoxy-3-pyridyl)-4-[4-methyl-4-[4-methyl-5-[4-(trifluoromethyl)phenyl]-1H-imidazol-2-yl]-1-piperidyl]-7H-pyrrolo[2,3-d]pyrimidine], for which the IC50 was 0.0001 to 1 µM.
In the case of `Cc1nc(C2(C)CCN(c3ncnc4[nH]c(-c5cnn(C(F)F)c5)cc34)CC2)[nH]c1-c1ccc(C(F)(F)F)cc1` [P-3179, 6-[1-(difluoromethyl)pyrazol-4-yl]-4-[4-methyl-4-[4-methyl-5-[4-(trifluoromethyl)phenyl]-1H-imidazol-2-yl]-1-piperidyl]-7H-pyrrolo[2,3-d]pyrimidine] it was 0.0001 to 1 µM; in that of `Cc1nc(C2(C)CCN(c3ncnc4[nH]c(-c5ccc(C#N)cc5)cc34)CC2)[nH]c1-c1ccc(Cl)cc1` [P-3180, 4-[4-[4-[5-(4-chlorophenyl)-4-methyl-1H-imidazol-2-yl]-4-methyl-1-piperidyl]-7H-pyrrolo[2,3-d]pyrimidin-6-yl]benzonitrile], 0.0001 to 1 µM; in that of `COc1ncc(-c2[nH]c(C3(C)CCN(c4ncnc5[nH]c(-c6ccc(C#N)cc6)cc45)CC3)nc2C)cc1F` [P-3181, 4-[4-[4-[5-(5-fluoro-6-methoxy-3-pyridyl)-4-methyl-1H-imidazol-2-yl]-4-methyl-1-piperidyl]-7H-pyrrolo[2,3-d]pyrimidin-6-yl]benzonitrile], 0.0001 to 1 µM.
Then `COc1ccc(-c2[nH]c(C3(C)CCN(c4ncnc5[nH]c(-c6cnn(C(F)F)c6)cc45)CC3)nc2C)cn1` [P-3182, 6-[1-(difluoromethyl)pyrazol-4-yl]-4-[4-[5-(6-methoxy-3-pyridyl)-4-methyl-1H-imidazol-2-yl]-4-methyl-1-piperidyl]-7H-pyrrolo[2,3-d]pyrimidine], with 0.0001 to 1 µM.
In turn, `COc1ccc(-c2[nH]c(C3(C)CCN(c4ncnc5[nH]c(C)cc45)CC3)nc2C)cc1F` [P-3183, 4-[4-[5-(3-fluoro-4-methoxy-phenyl)-4-methyl-1H-imidazol-2-yl]-4-methyl-1-piperidyl]-6-methyl-7H-pyrrolo[2,3-d]pyrimidine] showed a 50% inhibitory concentration (IC50) of 0.0001 to 1 µM.
In the case of `Cc1cc2c(N3CCC(C)(c4nc(C)c(-c5ccc(C(F)F)cc5)[nH]4)CC3)ncnc2[nH]1` [P-3184, 4-[4-[5-[4-(difluoromethyl)phenyl]-4-methyl-1H-imidazol-2-yl]-4-methyl-1-piperidyl]-6-methyl-7H-pyrrolo[2,3-d]pyrimidine] it was 0.0001 to 1 µM; in that of `COc1ncc(-c2nc(C3(C)CCN(c4ncnc5[nH]c(C)cc45)CC3)[nH]c2C)cc1F` [P-3185, 4-[4-[4-(5-fluoro-6-methoxy-3-pyridyl)-5-methyl-1H-imidazol-2-yl]-4-methyl-1-piperidyl]-6-methyl-7H-pyrrolo[2,3-d]pyrimidine], 1 to 10 µM.
In the case of `COc1ccc(-c2nc(C3(C)CCN(c4ncnc5[nH]c(C)cc45)CC3)[nH]c2C)cn1` [P-3186, 4-[4-[4-(6-methoxy-3-pyridyl)-5-methyl-1H-imidazol-2-yl]-4-methyl-1-piperidyl]-6-methyl-7H-pyrrolo[2,3-d]pyrimidine] it was 1 to 10 µM; in that of `COc1ccc(-c2[nH]c(C3(C)CCN(c4ncnc5[nH]c(-c6cnn(C(F)F)c6)cc45)CC3)nc2C)cc1F` [P-3187, 6-[1-(difluoromethyl)pyrazol-4-yl]-4-[4-[5-(3-fluoro-4-methoxy-phenyl)-4-methyl-1H-imidazol-2-yl]-4-methyl-1-piperidyl]-7H-pyrrolo[2,3-d]pyrimidine], 0.0001 to 1 µM; in that of `COc1ccc(-c2cc3c(N4CCC(C)(c5nc(C)c(-c6ccc(OC)c(F)c6)[nH]5)CC4)ncnc3[nH]2)cn1` [P-3188, 4-[4-[5-(3-fluoro-4-methoxy-phenyl)-4-methyl-1H-imidazol-2-yl]-4-methyl-1-piperidyl]-6-(6-methoxy-3-pyridyl)-7H-pyrrolo[2,3-d]pyrimidine], 0.0001 to 1 µM.
Take `Cc1nc(C2(C)CCN(c3ncnc4[nH]c(-c5cnn(C(F)F)c5)cc34)CC2)[nH]c1-c1ccc(C(F)F)cc1` [P-3189, 4-[4-[5-[4-(difluoromethyl)phenyl]-4-methyl-1H-imidazol-2-yl]-4-methyl-1-piperidyl]-6-[1-(difluoromethyl)pyrazol-4-yl]-7H-pyrrolo[2,3-d]pyrimidine]: the concentration for half-maximal inhibition (IC50) was in the range of 0.0001 to 1 µM.
Then `COc1ccc(-c2cc3c(N4CCC(C)(c5nc(C)c(-c6ccc(C(F)F)cc6)[nH]5)CC4)ncnc3[nH]2)cn1` [P-3190, 4-[4-[5-[4-(difluoromethyl)phenyl]-4-methyl-1H-imidazol-2-yl]-4-methyl-1-piperidyl]-6-(6-methoxy-3-pyridyl)-7H-pyrrolo[2,3-d]pyrimidine], with 0.0001 to 1 µM.
Then `Cc1cc2c(N3CCC(C)(c4nc(C)c(-c5cccc(OC(F)F)c5)[nH]4)CC3)ncnc2[nH]1` [P-3191, 4-[4-[5-[3-(difluoromethoxy)phenyl]-4-methyl-1H-imidazol-2-yl]-4-methyl-1-piperidyl]-6-methyl-7H-pyrrolo[2,3-d]pyrimidine], with 1 to 10 µM; and `Cc1nc(C2(C)CCN(c3ncnc4[nH]c(-c5cnn(C(F)F)c5)cc34)CC2)[nH]c1-c1cccc(OC(F)F)c1` [P-3192, 4-[4-[5-[3-(difluoromethoxy)phenyl]-4-methyl-1H-imidazol-2-yl]-4-methyl-1-piperidyl]-6-[1-(difluoromethyl)pyrazol-4-yl]-7H-pyrrolo[2,3-d]pyrimidine], with 0.0001 to 1 µM; and `COc1ccc(-c2cc3c(N4CCC(C)(c5nc(C)c(-c6cccc(OC(F)F)c6)[nH]5)CC4)ncnc3[nH]2)cn1` [P-3193, 4-[4-[5-[3-(difluoromethoxy)phenyl]-4-methyl-1H-imidazol-2-yl]-4-methyl-1-piperidyl]-6-(6-methoxy-3-pyridyl)-7H-pyrrolo[2,3-d]pyrimidine], with 0.0001 to 1 µM.
In the case of `Cc1nc(C2(C)CCN(c3ncnc4[nH]c(-c5ccc(C#N)cc5)cc34)CC2)[nH]c1-c1cccc(OC(F)F)c1` [P-3194, 4-[4-[4-[5-[3-(difluoromethoxy)phenyl]-4-methyl-1H-imidazol-2-yl]-4-methyl-1-piperidyl]-7H-pyrrolo[2,3-d]pyrimidin-6-yl]benzonitrile] it was 1 to 10 µM; in that of `Cc1nc(C2(C)CCN(c3ncnc4[nH]c(-c5ccc(C#N)cc5)cc34)CC2)[nH]c1-c1ccc(OC(F)F)cc1` [P-3195, 4-[4-[4-[5-[4-(difluoromethoxy)phenyl]-4-methyl-1H-imidazol-2-yl]-4-methyl-1-piperidyl]-7H-pyrrolo[2,3-d]pyrimidin-6-yl]benzonitrile], 0.0001 to 1 µM; in that of `Cc1cc2c(N3CCC(C)(c4nc(C)c(-c5ccc(OC(F)F)cc5)[nH]4)CC3)ncnc2[nH]1` [P-3196, 4-[4-[5-[4-(difluoromethoxy)phenyl]-4-methyl-1H-imidazol-2-yl]-4-methyl-1-piperidyl]-6-methyl-7H-pyrrolo[2,3-d]pyrimidine], 1 to 10 µM.
The compound `CCc1[nH]c(C2CCN(c3ncnc4[nH]c(-c5cnn(C(F)F)c5)cc34)CC2)nc1C` [P-3197, 6-[1-(difluoromethyl)pyrazol-4-yl]-4-[4-(5-ethyl-4-methyl-1H-imidazol-2-yl)-1-piperidyl]-7H-pyrrolo[2,3-d]pyrimidine] yielded an IC50 of 1 to 10 µM.
`CCc1[nH]c(C2CCN(c3ncnc4[nH]c(-c5ccc(C#N)cc5)cc34)CC2)nc1C` [P-3198, 4-[4-[4-(5-ethyl-4-methyl-1H-imidazol-2-yl)-1-piperidyl]-7H-pyrrolo[2,3-d]pyrimidin-6-yl]benzonitrile] gave an IC50 of 1 to 10 µM.

The IC50 is the concentration that gives 50% inhibition.

Values taken from patent publication US9771369B2, “Compounds and methods for kinase modulation, and indications therefor” (Plexxikon Inc., priority 2014, dated 2017).
